From patent publication US20220395500A1, “SMALL MOLECULE ACTIVATORS OF INTERFERON REGULATORY FACTOR 3 AND METHODS OF USE THEREOF” (Neuralexo, Inc., priority 2020, published 2022)
Like-named read-outs stand apart in the source and are kept apart here.

Assays:
[1] = system: NF-κB-SEAP reporter in J774-Dual cells; test: J774-Dual NF-κB-SEAP reporter assay; type: cell-based, mouse; conditions: read-out: J774 NFkB EC50
Description: First, optimal assay conditions and assay quality in 384-well format were determined. As mentioned, the mouse macrophage J774 cell line (J774-Dual, InvivoGen) stably transfected with the same inducible reporters described above (e.g., IRF-Lucia luciferase and NF-κB-SEAP) was used. The responsiveness of the J774-Dual cell line was investigated in an array of assay conditions to obtain sensitive and reproducible results for the activation of the IRF and NF-κB reporters. An optimal plating density and conditions for these cells was established for these cells in a 384-well format. Assay work-flow is similar to that discussed above for the THP1-Dual assay without a need for cell differentiation. Thus, cells are seeded directly in growth medium and incubated at 37° C. in a 5% C02 incubator for 24 hours prior to the programmed treatments being added as described herein.
The primary high throughput screen used the HTS platform of human THP1 monocyte cells containing the IRF-Lucia luciferase and NFκB-SEAP (secreted embryonic alkaline phosphatase) dual reporter (THP1-Dual, Invivogen), enabling the simultaneous study of the IRF and NFκB signaling pathways respectively. As discussed, the Lucia luciferase reporter gene is under the control of an ISG54 (interferon-stimulated gene) minimal promoter in conjunction with five interferon-stimulated response elements (ISRE). The SEAP gene is driven by an IFNβ minimal promoter fused to five copies of the NFκB consensus transcriptional response element and three copies of the c-Rel binding site. Both IRF-Lucia luciferase and NFκB-SEAP reporter proteins are secreted and readily measurable in the cell culture supernatant when using QUANTI-Luc™ and QUANTI-Blue™ detection reagents, respectively. Identified “hits” were confirmed in a secondary screen with an 8-point dose response curve. Hits were further screened for activity in the mouse using the mouse J774 macrophage-like cell line containing the identical reporter constructs (J774-Dual, Invivogen).
The OTRADI Small Molecule Library of approximately 246,000 diverse compounds (see below for description) was screened using the THP1-Dual based HTS platform described above. All transfer steps in the screen are fully automated, thus reducing variability. Primary screening included a single data point or dose for each molecule. After data normalization was applied for each assay run, “hit” selection was performed on the plates that pass the quality control (QC) criterion. Hits were defined as samples having values above the activity cutoff determined based on noise level of the assay to reduce false positive rates. In the pilot study discussed above this activity value was >3σ above the ISRE mean with the added criteria of NFκB activation being lower than […] from the mean to identify IRF selective compounds. The ratio of ISRE:NFκB activity was also calculated as a selectivity index for prioritizing hit selection. Primary hits underwent secondary screening to determine the 50% effective concentration (EC50) and 50% cytotoxic concentration (CC50) of these agents using an 8-point dose-response curve in the human THP1-Dual cells. Cytotoxicity was measured in the plate using Cell Titer Glo (Promega). Identified candidate compounds were further screened (orthogonal screen) for cross species activity in the validated mouse J774-Dual assay using an 8-point dose-response format to determine EC50 and CC50 values as well as ISRE:NFκB ratios. A general process flow for the experimental design laid out above is depicted at FIG. 12.

[2] = system: IRF-Lucia luciferase reporter (ISRE) in THP1-Dual cells; test: THP1-Dual IRF-Lucia luciferase reporter assay (ISRE activation); type: cell-based, human; conditions: for EC50: read-out: THP1 IRF EC50; for IRF3 and NF-κB reporter activity: human THP1 and mouse J774 macrophage-like cells
Outline: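 Supernatant luminescence from the ISG54/ISRE-driven Lucia reporter was measured after 24 h exposure to 10 μM compound (LPS 313 ng/mL in control wells).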

[3] = Mus musculus, J774, Mouse Reporter Cell Line, 8-point dose response
[4] = Homo sapiens, THP1-Dual, Human Reporter Cell Line, 8-point dose response
[5] = Mus musculus, J774, Mouse Reporter Cell Line J774
[6] = Homo sapiens, THP1-Dual, Human Reporter Cell Line THP1

SMILES | EC50 [2, 4] | EC50 [2, 6] | also measured
O=C(Nc1ccc(N2CCN(C(=O)c3cccs3)CC2)cc1)c1sc2cc(Cl)ccc2c1Cl [NA-20] | 1.94 µM | – | EC50 [1, 3]: ~4.75 µM
Cc1ccc(NC(=O)c2cc(NC(=O)c3cccs3)ccc2N2CCOCC2)cc1Br [NB-23] | – | 3.27 µM | EC50 [1, 5]: 9.53 µM
COCOc1ccc2oc(-c3ccc(C)c([N+](=O)[O-])c3)nc2c1 [ND-96] | – | ~4.1 µM | –
Cc1cc(NC(=O)c2sc3cc(Cl)ccc3c2Cl)ccc1NC(=O)c1ccco1 [NC-2] | 7.98 µM | – | –
Cc1ccc(-c2nc3ccccc3s2)cc1NC(=O)c1cccc(Cl)c1 [ND-80] | – | 6.16 µM | –
O=C(Nc1ccc(N2CCN(C(=O)c3ccsc3)CC2)cc1)c1ccc(OCc2ccccc2)nc1 [NA-1] | 1.94 µM | – | EC50 [1, 3]: ~3.19 µM
Cc1ccc(NC(=O)c2cc(NC(=O)c3cccs3)ccc2N2CCOCC2)cc1Cl [NB-8] | – | 4.7 µM | –
Cc1ccc(NC(=O)c2cc(NC(=O)c3cccs3)ccc2N2CCOCC2)cc1 [NB-17] | – | 6.07 µM | EC50 [1, 5]: 8.79 µM
COc1cccc(COc2ccc(C(=O)Nc3ccc(N4CCN(C(=O)c5cccs5)CC4)cc3)cc2)c1 [NA-24, 4-((3-methoxybenzyl)oxy)-N-(4-(4-(thiophene-2-carbonyl)piperazin-1-yl)phenyl)benzamide] | 3.14 µM | – | –
O=C(Cc1ccc(Cl)cc1)Nc1cccc(-c2nnc(-c3ccco3)o2)c1 [ND-7] | – | 8.42 µM | EC50 [1, 5]: 30.6 µM
COc1ccc(C(=O)Nc2nc(-c3cc4ccccc4oc3=O)cs2)cc1 [ND-1] | – | ~12.4 µM | EC50 [1, 5]: 8.75 µM
COc1ccc(C(=O)Nc2cccc(-c3nc4ncccc4o3)c2)cc1Br [ND-47] | – | 10.6 µM | EC50 [1, 5]: 9.71 µM
O=C(Nc1ccc(N2CCN(C(=O)c3cccs3)CC2)cc1)c1ccc(Br)cc1 [NA-14] | ~2.62 µM | – | –
COc1ccc(C(=O)Nc2cc(-c3nc4cc(C)c(C)cc4o3)ccc2C)cc1[N+](=O)[O-] [ND-13, N-(5-(5,6-dimethylbenzo[d]oxazol-2-yl)-2-methylphenyl)-4-methoxy-3-nitrobenzamide] | – | – | IRF3 and NF-κB reporter activity ([2]; 8-point dose response): high IRF3 activity and low off-target NF-κB activation
O=C(Nc1ccc(N2CCN(C(=O)c3cccs3)CC2)cc1)c1ccc(-c2ccccc2)nc1 [NA-41] | 10.7 µM | – | –
O=C(Nc1ccc(N2CCN(C(=O)c3cccs3)CC2)cc1)c1ccc(-c2cc3ccccc3oc2=O)cc1 [NA-32] | 1.43 µM | – | –
CC(C)CC(=O)Nc1ccc2oc(-c3cccc(I)c3)nc2c1 [ND-5] | – | 14.7 µM | –
Cc1ccc(NC(=O)c2cc(NC(=O)c3ccccc3)ccc2N2CCOCC2)cc1Cl [NB-1] | – | 2.53 µM | EC50 [1, 5]: 19.9 µM
COc1ccc(C(=O)Nc2cc(-c3nc4cc(C)c(C)cc4o3)ccc2C)cc1[N+](=O)[O-] [ND13, N-(5-(5,6-dimethylbenzo[d]oxazol-2-yl)-2-methylphenyl)-4-methoxy-3-nitrobenzamide] | – | 0.975 µM | EC50 [1, 5]: 1.32 µM
COc1ccc(C(=O)Nc2cc(-c3nc4ccccc4s3)ccc2C)cc1[N+](=O)[O-] [ND-38] | – | – | EC50 ([1]; Mouse Reporter Cell Line J774): 12 µM; EC50 ([2]; Human Reporter Cell Line THP1): 4.29 µM
Cc1ccc(NC(=O)c2cc(NC(=O)Cc3ccccc3)ccc2N2CCOCC2)cc1Cl [NB-3] | – | ~1.57 µM | –

SMILES | EC50 [2, 4] | EC50 [2, 6] | also measured
O=C(Nc1ccc(N2CCN(C(=O)c3cccs3)CC2)cc1)c1ccc(OCc2cccc(Cl)c2)cc1 [NA-33] | 1.84 µM | – | EC50 [1, 3]: 3.81 µM
O=C(Nc1ccc(N2CCN(C(=O)c3cccs3)CC2)cc1)c1ccc(-c2ccncc2)cc1 [NA-38] | ~11.2 µM | – | –
COc1ccc(C(=O)Nc2cc(-c3nc4cc(C(C)C)ccc4o3)ccc2C)cc1[N+](=O)[O-] [ND-2] | – | 1.12 µM | EC50 [1, 5]: 11.4 µM
COc1ccc(C(=O)Nc2ccc(OCc3ccccc3)cc2)cc1[N+](=O)[O-] [NA-44] | 4.45 µM | – | EC50 [1, 3]: 7.65 µM
O=C(Nc1ccc(N2CCN(C(=O)c3cccs3)CC2)cc1)c1cccc2c(Br)cccc12 [NA-21, 5-bromo-N-{4-[4-(2-thienylcarbonyl)-1-piperazinyl]phenyl}-1-naphthamide] | 0.73 µM | – | EC50 [1, 3]: 1.05 µM
CCOc1cccc(COc2ccc(C(=O)Nc3ccc(N4CCN(C(=O)c5cccs5)CC4)cc3)cc2)c1 [NA-42, 4-((3-ethoxybenzyl)oxy)-N-(4-(4-(thiophene-2-carbonyl)piperazin-1-yl)phenyl)benzamide] | – | – | IRF3 and NF-κB reporter activity ([2]; 8-point dose response): high IRF3 activity and low off-target NF-κB activation
CCOc1ccc(C(=O)Nc2ccc(N3CCN(C(=O)c4cccs4)CC3)cc2)cc1Br [NA-30] | 2.68 µM | – | –
O=C(Nc1ccc(N2CCOCC2)c(C(=O)Nc2ccc(OCc3ccccc3)cc2)c1)c1cccs1 [NB-18] | – | 2.23 µM | –
Cc1c(Br)ccc(C(=O)Nc2ccc(N3CCN(C(=O)c4cccs4)CC3)cc2)c1C [NA-16] | 6.46 µM | – | EC50 [1, 3]: 12.9 µM
Cc1ccc2c(=O)c3cccc(CC(=O)O)c3oc2c1C [DMXAA, 5,6-dimethylxanthenone-4-acetic acid] | – | – | ISRE activation in THP1-Dual cell line ([2]; THP1-Dual): not effective
O=C(Nc1ccc(N2CCN(C(=O)c3cccs3)CC2)cc1)c1ccc(OCc2ccccc2)nc1 [NA-59] | ~2.53 µM | – | EC50 [1, 3]: 4.37 µM
COc1ccc(C(=O)Nc2cc(-c3nc4ccccc4s3)ccc2C)cc1[N+](=O)[O-] [ND52, N-[5-(1,3-benzothiazol-2-yl)-2-methylphenyl]-4-methoxy-3-nitrobenzamide] | – | 3.89 µM | EC50 [1, 5]: 7.53 µM
CCOc1cccc(COc2ccc(C(=O)Nc3ccc(N4CCN(C(=O)c5cccs5)CC4)cc3)cc2)c1 [NA42, 4-((3-ethoxybenzyl)oxy)-N-(4-(4-(thiophene-2-carbonyl)piperazin-1-yl)phenyl)benzamide] | 3.6 µM | – | EC50 [1, 3]: 5.36 µM
O=C(Nc1ccc(N2CCN(C(=O)c3cccs3)CC2)cc1)c1ccc(OCc2ccc(F)c(F)c2F)cc1 [NA-23] | 1.71 µM | – | EC50 [1, 3]: ~2.53 µM
O=C(Nc1ccc(N2CCN(C(=O)c3cccs3)CC2)cc1)c1ccc(Cl)c2ccccc12 [NA13] | ~1.55 µM | – | EC50 [1, 3]: ~2.86 µM
Cc1ccc(COc2ccc(C(=O)Nc3ccc(N4CCN(C(=O)c5cccs5)CC4)cc3)cc2)cc1 [NA-25] | 3.29 µM | – | EC50 [1, 3]: 8.15 µM
O=C(Nc1ccc(N2CCN(C(=O)c3cccs3)CC2)cc1)c1ccc(-c2ccccc2)cn1 [NA-39] | 7.02 µM | – | –
COCOc1ccc2oc(-c3ccc(C)c(NC(=O)c4ccc(OC)c([N+](=O)[O-])c4)c3)nc2c1 [ND-95, 4-methoxy-N-(5-(5-(methoxymethoxy)benzo[d]oxazol-2-yl)-2-methylphenyl)-3-nitrobenzamide] | – | 0.59 µM | EC50 [1, 5]: 3.01 µM
ClCCCOc1ccc(-c2nc3cc(OCCCN4CCCC4)ccc3o2)cc1 [ND-94] | – | 32.1 µM | –
COc1ccc(-c2nc3cc(C(C)C)ccc3o2)cc1NC(=O)c1ccc(C)c([N+](=O)[O-])c1 [ND-16] | – | 3.12 µM | EC50 [1, 5]: 6.75 µM
